Data published in US12590067B2, “Herbicidal cyclohexanedione derivatives” (SYNGENTA CROP PROTECTION AG, priority 2019, dated 2026).

What was measured:
Test in all cases: Glasshouse herbicidal test, pre- and post-emergence, percentage damage to the plant
Type in all cases: in vivo
[1] = test system: Alopecurus myosuroides (ALOMY); conditions: 250 g/h, evaluated after 13 days; for ALOMY POST percentage damage caused to the plant (five-point scale): post-emergence; for ALOMY PRE percentage damage caused to the plant (five-point scale): pre-emergence
Method: (§1) Seeds of a variety of test species are sown in standard soil in pots (Lolium perenne (LOLPE), Setaria faberi (SETFA), Alopecurus myosuroides (ALOMY), Echinochloa crus-galli (ECHCG), Avena fatua (AVEFA)). After cultivation for one day (pre-emergence) or after 8 days cultivation (post-emergence) under controlled conditions in a glasshouse (at 24/16° C., day/night; 14 hours light; 65% humidity), the plants are sprayed with an aqueous spray solution derived from the formulation of the technical active ingredient in acetone/water (50:50) solution containing 0.5% Tween 20 (polyoxyethelyene sorbitan monolaurate, CAS RN 9005-64-5). Compounds are applied at 250 g/h. The test plants are then grown in a glasshouse under controlled conditions in a glasshouse (at 24/16° C., day/night; 14 hours light; 65% humidity) and watered twice daily. After 13 days for pre and post-emergence, the test is evaluated for the percentage damage caused to the plant. The biological activities are shown in the following table on a five-point scale (5=80-100%; 4=60-79%; 3=40-59%; 2=20-39%; 1=0-19%).

[2] = test system: Setaria faberi (SETFA); conditions: 250 g/h, evaluated after 13 days; for SETFA POST percentage damage caused to the plant (five-point scale): post-emergence; for SETFA PRE percentage damage caused to the plant (five-point scale): pre-emergence
Method: as §1

[3] = test system: Lolium perenne (LOLPE); conditions: 250 g/h, evaluated after 13 days; for LOLPE POST percentage damage caused to the plant (five-point scale): post-emergence; for LOLPE PRE percentage damage caused to the plant (five-point scale): pre-emergence
Method: as §1

[4] = test system: Echinochloa crus-galli (ECHCG); conditions: 250 g/h, evaluated after 13 days; for ECHCG POST percentage damage caused to the plant (five-point scale): post-emergence; for ECHCG PRE percentage damage caused to the plant (five-point scale): pre-emergence
Method: as §1

[5] = test system: Avena fatua (AVEFA); conditions: 250 g/h, evaluated after 13 days; for AVEFA POST percentage damage caused to the plant (five-point scale): post-emergence; for AVEFA PRE percentage damage caused to the plant (five-point scale): pre-emergence
Method: as §1

SMILES	ALOMY POST percentage damage caused to the plant (five-point scale) [1]	ALOMY PRE percentage damage caused to the plant (five-point scale) [1]	SETFA POST percentage damage caused to the plant (five-point scale) [2]	SETFA PRE percentage damage caused to the plant (five-point scale) [2]	LOLPE POST percentage damage caused to the plant (five-point scale) [3]	LOLPE PRE percentage damage caused to the plant (five-point scale) [3]	ECHCG POST percentage damage caused to the plant (five-point scale) [4]	ECHCG PRE percentage damage caused to the plant (five-point scale) [4]	AVEFA POST percentage damage caused to the plant (five-point scale) [5]	AVEFA PRE percentage damage caused to the plant (five-point scale) [5]
CC#Cc1cc(Cl)c(C2C(=O)CC3(CCN(C(=O)C(C)(C)C)CC3)CC2=O)c(OC)c1 [Compound A10]	5 (5=80-100%)	5 (5=80-100%)	5 (5=80-100%)	5 (5=80-100%)	5 (5=80-100%)	5 (5=80-100%)	5 (5=80-100%)	5 (5=80-100%)	5 (5=80-100%)	5 (5=80-100%)
CC#Cc1cc(Cl)c(C2C(=O)CC3(CCN(C(=O)CC#N)CC3)CC2=O)c(Cl)c1 [Compound A15]	5 (5=80-100%)	5 (5=80-100%)	5 (5=80-100%)	5 (5=80-100%)	5 (5=80-100%)	5 (5=80-100%)	5 (5=80-100%)	5 (5=80-100%)	5 (5=80-100%)	5 (5=80-100%)
CC#Cc1cc(Cl)c(C2C(=O)CC3(CCN(C(=O)COC)CC3)CC2=O)c(OC)c1 [Compound A5]	5 (5=80-100%)	5 (5=80-100%)	5 (5=80-100%)	5 (5=80-100%)	5 (5=80-100%)	5 (5=80-100%)	5 (5=80-100%)	5 (5=80-100%)	5 (5=80-100%)	5 (5=80-100%)
CCc1cc(-c2ccc(C#N)cn2)cc(CC)c1C1C(=O)CC2(CCN(C(=O)C3CC3)CC2)CC1=O [Compound A52]	5 (5=80-100%)	5 (5=80-100%)	5 (5=80-100%)	5 (5=80-100%)	5 (5=80-100%)	5 (5=80-100%)	5 (5=80-100%)	5 (5=80-100%)	5 (5=80-100%)	5 (5=80-100%)
CC#Cc1cc(CC)c(C2C(=O)CC3(CCN(C(C)=O)CC3)CC2=O)c(CC)c1 [Compound A48]	5 (5=80-100%)	5 (5=80-100%)	5 (5=80-100%)	5 (5=80-100%)	5 (5=80-100%)	5 (5=80-100%)	5 (5=80-100%)	4 (4=60-79%)	5 (5=80-100%)	5 (5=80-100%)
Cc1cc(-c2ccc(C#N)cn2)cc(Cl)c1C1C(=O)CC2(CCN(C(=O)C3CC3)CC2)CC1=O [Compound A57]	5 (5=80-100%)	5 (5=80-100%)	5 (5=80-100%)	5 (5=80-100%)	5 (5=80-100%)	5 (5=80-100%)	5 (5=80-100%)	5 (5=80-100%)	5 (5=80-100%)	5 (5=80-100%)
CC#Cc1cc(Cl)c(C2C(=O)CC3(CCN(C(C)=O)CC3)CC2=O)c(Cl)c1 [Compound A14]	5 (5=80-100%)	5 (5=80-100%)	5 (5=80-100%)	5 (5=80-100%)	5 (5=80-100%)	5 (5=80-100%)	5 (5=80-100%)	5 (5=80-100%)	5 (5=80-100%)	5 (5=80-100%)
Cc1cc(-c2ccc(F)cn2)cc(Cl)c1C1C(=O)CC2(CCN(C(=O)C3CC3)CC2)CC1=O [Compound A58]	5 (5=80-100%)	5 (5=80-100%)	5 (5=80-100%)	5 (5=80-100%)	5 (5=80-100%)	5 (5=80-100%)	5 (5=80-100%)	5 (5=80-100%)	5 (5=80-100%)	5 (5=80-100%)
